Data as given in ChEMBL document CHEMBL1201862, “PubChem BioAssay data set” (2004).
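Grown in 96-well plates, cells were treated for 48 hours with each compound at five concentrations. Insufficient inhibition: endpoint recorded as highest concentration tested. GI50 is the concentration that inhibits growth by half.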 The source made the active and inactive calls. No stated cut-off is given here; in the data, active = GI50 up to about 1.1 µM and inactive = higher.

Assays:
Test in all cases: NCI anticancer screen, dose series, 48 h
NCI-H226 = tested on: NCI-H226
PC-3 = tested on: PC-3
A498 = tested on: A498
HCT-15 = tested on: HCT-15
SK-MEL-28 = tested on: SK-MEL-28
HOP-62 = tested on: HOP-62
786-0 = tested on: 786-0
SR = tested on: SR
CCRF-CEM = tested on: CCRF-CEM
NCI-H23 = tested on: NCI-H23
SF-295 = tested on: SF-295
NCI-H460 = tested on: NCI-H460
HOP-92 = tested on: HOP-92
SK-OV-3 = tested on: SK-OV-3
UACC-62 = tested on: UACC-62
RXF 393 = tested on: RXF 393
U-251 = tested on: U-251
K562 = tested on: K562
KM12 = tested on: KM12
TK-10 = tested on: TK-10

Compound | GI50 (NCI-H226) | GI50 (PC-3) | GI50 (A498) | GI50 (HCT-15) [µM] | GI50 (SK-MEL-28) | GI50 (HOP-62) | GI50 (786-0) | GI50 (SR) | GI50 (CCRF-CEM) | GI50 (NCI-H23) | GI50 (SF-295) | GI50 (NCI-H460) | GI50 (HOP-92) | GI50 (SK-OV-3) | GI50 (UACC-62) | GI50 (RXF 393) | GI50 (U-251) | GI50 (K562) | GI50 (KM12) | GI50 (TK-10)
COc1cc2c[n+](C)c3c4cc(OC)c(OCc5ccccc5)cc4c(OCc4ccccc4)cc3c2cc1OC | 2.26 µM (inactive) | 2.5 µM (inactive) | 48 µM (inactive) | 97.9 | 5.48 µM (inactive) | 13.8 µM (inactive) | 13.2 µM (inactive) | 1.4 µM (inactive) | 4.68 µM (inactive) | 5.58 µM (inactive) | 25.7 µM (inactive) | 33 µM (inactive) | 1.84 µM (inactive) | 5.68 µM (inactive) | 2.6 µM (inactive) | 12.1 µM (inactive) | 0.449 µM (active) | 1.28 µM (inactive) | 10.5 µM (inactive) | 23.3 µM (inactive)
CC1=NN=C(N)NC1=CC(Sc1ccc(Cl)cc1)c1c(O)ccc2ccccc12 (stereo not given) | 4.55 µM (inactive) | 16.1 µM (inactive) | 18.7 µM (inactive) | 16.3 | 14 µM (inactive) | 20.2 µM (inactive) | 25.5 µM (inactive) | 17.4 µM (inactive) | 4.73 µM (inactive) | 15.1 µM (inactive) | 4.21 µM (inactive) | 17.4 µM (inactive) | 20.3 µM (inactive) | 18.3 µM (inactive) | 9.35 µM (inactive) | 4.75 µM (inactive) | 18.3 µM (inactive) | 38.5 µM (inactive) | 14.5 µM (inactive) | 26.5 µM (inactive)
Nc1nonc1-c1noc(-c2nonc2N)[n+]1[O-] | 49.5 µM (inactive) | 69.7 µM (inactive) | > 100 µM (inactive) | 19.7 | > 100 µM (inactive) | > 100 µM (inactive) | 37.1 µM (inactive) | 93.8 µM (inactive) | 0.366 µM (active) | 77.4 µM (inactive) | > 100 µM (inactive) | 62.7 µM (inactive) | 69.8 µM (inactive) | > 100 µM (inactive) | 66.7 µM (inactive) | 24.9 µM (inactive) | > 100 µM (inactive) | 41 µM (inactive) | 58.9 µM (inactive) | 43 µM (inactive)
Nc1nc(SCc2ccccc2Cl)cc(C(=O)O)n1 | 49.1 µM (inactive) | 53.6 µM (inactive) | > 100 µM (inactive) | 41.9 | 87.3 µM (inactive) | 63.1 µM (inactive) | 79.1 µM (inactive) | 39 µM (inactive) | 32.2 µM (inactive) | 57.4 µM (inactive) | 58.2 µM (inactive) | 41.5 µM (inactive) | 46.2 µM (inactive) | > 100 µM (inactive) | > 100 µM (inactive) | > 100 µM (inactive) | 54.8 µM (inactive) | 46.5 µM (inactive) | 55.5 µM (inactive) | > 100 µM (inactive)
Cc1nn(C(=O)c2ccncc2)c2c1C(c1ccc([N+](=O)[O-])cc1)SC(=N)N2 (stereo not given) | > 100 µM (inactive) | > 100 µM (inactive) | > 100 µM (inactive) | > 100 | > 100 µM (inactive) | > 100 µM (inactive) | > 100 µM (inactive) | > 100 µM (inactive) | > 100 µM (inactive) | > 100 µM (inactive) | > 100 µM (inactive) | > 100 µM (inactive) | > 100 µM (inactive) | > 100 µM (inactive) | > 100 µM (inactive) | > 100 µM (inactive) | > 100 µM (inactive) | > 100 µM (inactive) | > 100 µM (inactive) | > 100 µM (inactive)
CC1CC[C@@]2(OC1)O[C@H]1C[C@H]3[C@@H]4CC[C@H]5C[C@@H](OC6OC(CO)C(OC7OC(CO)C(OC8OC(CO)C(O)C(OC9OC(C)C(OC%10OC(C)C(O)C(O)C%10O)C(O)C9O)C8OC8OCC(O)C(O)C8O)C(O)C7O)C(O)C6O)CC[C@]5(C)[C@H]4CC(=O)[C@]3(C)[C@H]1[C@@H]2C (stereo not given in full) | 18.8 µM (inactive) | 16.7 µM (inactive) | 18.2 µM (inactive) | 19.1 | 18.1 µM (inactive) | 21.4 µM (inactive) | 22.4 µM (inactive) | 14.6 µM (inactive) | 12.2 µM (inactive) | 20.5 µM (inactive) | 23.9 µM (inactive) | 17.8 µM (inactive) | 19 µM (inactive) | 24.1 µM (inactive) | 18.8 µM (inactive) | 16.9 µM (inactive) | 18.7 µM (inactive) | 16.7 µM (inactive) | 18.2 µM (inactive) | 17.7 µM (inactive)
CCOC(=O)NC1=C(N2CC2)C(=O)C(NC(=O)OCC)=C(N2CC2)C1=O [DIAZIQUONE] | 4.23 µM (inactive) | 4.36 µM (inactive) | 3.56 µM (inactive) | 7.69 | 13 µM (inactive) | 0.741 µM (active) | 1.56 µM (inactive) | 0.339 µM (active) | 1.37 µM (inactive) | 1.85 µM (inactive) | 1.12 µM (active) | 0.188 µM (active) | 5.51 µM (inactive) | 4.52 µM (inactive) | 0.489 µM (active) | 4.68 µM (inactive) | 2.51 µM (inactive) | 5.43 µM (inactive) | 8.81 µM (inactive) | 31.6 µM (inactive)
COc1cc2c(cc1OCCN1C(=O)c3cccc4cccc(c34)C1=O)N=C[C@@H]1CCCN1C2=O | 7.26 µM (inactive) | 7.08 µM (inactive) | 9.04 µM (inactive) | 9.31 | 8.95 µM (inactive) | 21.5 µM (inactive) | 7.96 µM (inactive) | > 100 µM (inactive) | 0.236 µM (active) | 10.4 µM (inactive) | 13.7 µM (inactive) | 5.89 µM (inactive) | 7.76 µM (inactive) | 24.3 µM (inactive) | 7.93 µM (inactive) | 7.8 µM (inactive) | 6.15 µM (inactive) | 1.15 µM (inactive) | 14.3 µM (inactive) | 8.05 µM (inactive)
CCOC(=O)Oc1cc2ccsc2c2c1c1ccccc1n2C(=O)OCC | 42.2 µM (inactive) | 38.2 µM (inactive) | 18.4 µM (inactive) | 26.2 | > 100 µM (inactive) | 37.3 µM (inactive) | 34.1 µM (inactive) | > 100 µM (inactive) | > 100 µM (inactive) | 52.5 µM (inactive) | 36.1 µM (inactive) | 30.9 µM (inactive) | 22 µM (inactive) | 29 µM (inactive) | 34.4 µM (inactive) | 22.2 µM (inactive) | 45 µM (inactive) | > 100 µM (inactive) | 49.9 µM (inactive) | 50 µM (inactive)
O=C(CC(Cc1ccccc1)c1ccc(Oc2ccccc2)cc1)Nc1cccc(Cl)c1 (stereo not given) | 7.48 µM (inactive) | 3.7 µM (inactive) | 4.47 µM (inactive) | 3.64 | 9.16 µM (inactive) | 3.83 µM (inactive) | 5.43 µM (inactive) | 4.94 µM (inactive) | 3.49 µM (inactive) | 3.35 µM (inactive) | 3.24 µM (inactive) | 3.83 µM (inactive) | 1.9 µM (inactive) | 5.46 µM (inactive) | 3.04 µM (inactive) | 5.41 µM (inactive) | 3.95 µM (inactive) | 3.34 µM (inactive) | 3.29 µM (inactive) | 10 µM (inactive)
CCOC(=O)c1sc2nc(SC)nc3c2c1NCN3c1ccc(F)c(F)c1 | 29.9 µM (inactive) | 16.4 µM (inactive) | 12.6 µM (inactive) | 12.4 | 23.7 µM (inactive) | 12.1 µM (inactive) | 4.82 µM (inactive) | > 21.5 µM (inactive) | 16.7 µM (inactive) | 14.6 µM (inactive) | 24.2 µM (inactive) | 8.63 µM (inactive) | 18.5 µM (inactive) | 19.2 µM (inactive) | > 52.4 µM (inactive) | 6.43 µM (inactive) | 9.27 µM (inactive) | > 100 µM (inactive) | 10.7 µM (inactive) | 22.6 µM (inactive)
COc1ccc(C(c2c[nH]c3ccc(Br)cc23)c2c[nH]c3ccc(Br)cc23)cc1 | 0.938 µM (active) | 0.284 µM (active) | 1.04 µM (active) | 0.214 | 0.303 µM (active) | 0.411 µM (active) | 0.215 µM (active) | 0.151 µM (active) | 0.138 µM (active) | 0.367 µM (active) | 0.313 µM (active) | 0.228 µM (active) | 0.213 µM (active) | 1.24 µM (inactive) | 0.218 µM (active) | 0.278 µM (active) | 0.22 µM (active) | 0.167 µM (active) | 0.197 µM (active) | 0.993 µM (active)
CC(C)(C)C1=CC(=C2C=Cc3cc(O)ccc3O2)C=C(C(C)(C)C)C1=O | 1.85 µM (inactive) | 1.57 µM (inactive) | 1.5 µM (inactive) | 1.79 | 1.73 µM (inactive) | 1.92 µM (inactive) | 1.36 µM (inactive) | 0.731 µM (active) | 0.745 µM (active) | 1.79 µM (inactive) | 1.87 µM (inactive) | 1.34 µM (inactive) | 1.67 µM (inactive) | 2.21 µM (inactive) | 1.38 µM (inactive) | 1.45 µM (inactive) | 1.39 µM (inactive) | 2.13 µM (inactive) | 1.58 µM (inactive) | 1.7 µM (inactive)
